Patent US20250208149A1, “WEE1 COMPOUND FOR TREATING UTERINE SEROUS CARCINOMA” (Recurium IP Holdings, LLC, priority 2022, published 2025)

Key:
Type in all cases: cell-based
A427 cells = test: ZN-c3 dose response, percent cell density (cell titer glow), PPP2R1A siRNA vs scrambled control; conditions: Homo sapiens, A-427, 72 h
Experimental: (§1) FIG. 1 depicts the percent cell density of A427 (a first non-small cell lung cancer cell line) cells after treatment with a 10-point dose response of ZN-c3 for 72 hours, comparing cells transfected with siRNA to PPP2R1A against those transfected with a scrambled control siRNA. Percent cell density is calculated using cell titer glow analysis. PPP2R1A siRNA transfected cells have approximately 3.5-fold increase in sensitivity to ZN-c3 (TABLE 1).
(§2) The effect of PPP2R1A knockdown on influencing cancer cell susceptibility to ZN-c3 was evaluated. Various cancer cell lines were transfected with PPP2R1A siRNA or control scrambled siRNA and the cells were treated with a 10 point dose response of ZN-c3 for 72 hours. Percent cell density was calculated using cell titer glow analysis. The PPP2R1A siRNA targeted the following bases Chr.19: 52189802-52226425. SiRNA transfection was started 48 hours prior to treatment with ZN-c3. […]
(§3) A first non-small cell lung cancer cell line A427 was treated with PPP2R1A siRNA or control siRNA and transfected cells were assessed for sensitivity to ZN-c3 by measurement of reduction in percent cell density (FIG. 1). PPP2R1A siRNA mediated knockdown of PPP2R1A was evaluated by comparison of PPP2R1A expression in conditions treated with siCTRL and siPPPR12A (FIG. 2).

H1975 cells = test: as above; conditions: Homo sapiens, NCI-H1975, 72 h
Experimental: as §1, with “FIG. 3” for “FIG. 1”, “of H1975” for “of A427”, “(a second” for “(a first”, “approximately 3.7-fold” for “approximately 3.5-fold”, “(TABLE 2).” for “(TABLE 1).”
as §2
as §3, with “second” for “first”, “H1975” for “A427”, “3).” for “1).”, “4).” for “2).”

Hs578T cells = test: as above; conditions: Homo sapiens, Hs-578T, 72 h
Experimental: as §1, with “FIG. 5” for “FIG. 1”, “of Hs578T” for “of A427”, “(a breast” for “(a first non-small cell lung”, “approximately 2.4-fold” for “approximately 3.5-fold”, “(TABLE 3).” for “(TABLE 1).”
as §2
as §3, with “breast” for “first non-small cell lung”, “Hs578T” for “A427”, “5).” for “1).”, “6).” for “2).”

SKOV3 cells = test: as above; conditions: Homo sapiens, SK-OV-3, 72 h
Experimental: as §1, with “FIG. 9” for “FIG. 1”, “of SKOV3 (an ovarian” for “of A427 (a first non-small cell lung”, “approximately 2.7-fold” for “approximately 3.5-fold”, “(TABLE 5).” for “(TABLE 1).”
The effect of PPP2R1A knockdown on influencing cancer cell susceptibility to ZN-c3 was evaluated. Various cancer cell lines were transfected with PPP2R1A siRNA or control scrambled siRNA and the cells were treated with a 10 point dose response of ZN-c3 for 72 hours. Percent cell density was calculated using cell titer glow analysis. The PPP2R1A siRNA targeted the following bases Chr.19: 52189802-52226425. SiRNA transfection was started 48 hours prior to treatment with ZN-c3. The ZN-c3 dose response evaluation included ZN-c3 dosages at […].
as §3, with “An ovarian” for “A first non-small cell lung cancer”, “SKOV3” for “A427”, “9).” for “1).”, “10).” for “2).”

[1] = tested on: HEC-59 endometrial cancer cells; test: Percent inhibition of cell growth, ZN-c3, LB-100 or ZN-c3+LB-100 after siCTRL or siPPP2R1A (cell titer glow); conditions: 72 hours, ZN-c3 300 nM, LB-100 1 μM
Experimental: (§4) FIG. 20 depicts the percent inhibition of cell growth in HEC-59 endometrial cancer cells after treatment with ZN-c3 alone, the PP2A catalytic inhibitor LB-100 alone, or the combination of ZN-c3+LB-100 after siRNA mediated knockdown of PPP2R1A. […] Percent inhibition is calculated using cell titer glow analysis.
(§5) Various cancer cell lines were treated with ZN-c3 alone, the PP2A catalytic inhibitor LB-100 alone, or the combination of ZN-c3+LB-100. As in Example 1 and Example 2, the treatment period was 72 hours and percent inhibition was calculated using cell titer glow analysis.
The endometrial cancer cell line HEC-59 was assessed for sensitivity to ZN-c3 alone, LB-100 alone, or the combination of ZN-c3+LB-100 following treatment with siCTRL or siPPP2R1A (FIG. 20).

[2] = tested on: HEC1B endometrial cancer cells; test: as above; conditions: HEC1B, 72 hours, ZN-c3 200 nM, LB-100 1 μM
Experimental: as §4, with “21” for “20”, “HEC1B” for “HEC-59”
as §5, with “Following observations that both knockdown and knockout of PPP2R1A could sensitize cancer cells to Zn-C3, the effects of pharmacological inhibition of PPP2R1A with the catalytic inhibitor LB-100 were evaluated. Various” for “Various”
The endometrial cancer cell line HEC1B was also assessed for sensitivity to ZN-c3 alone, LB-100 alone, or the combination of ZN-c3+LB-100 following treatment with siCTRL or siPPP2R1A (FIG. 21).

For `C=CCn1c(=O)c2cnc(Nc3ccc(N4CCN(C)CC4)cc3)nc2n1-c1ccc2c(n1)[C@@](O)(CC)CC2` [ZN-c3, (R)-2-allyl-1-(7-ethyl-7-hydroxy-6,7-dihydro-5H-cyclopenta[b]pyridin-2-yl)-6-((4-(4-methylpiperazin-1-yl)phenyl)amino)-1,2-dihydro-3H-pyrazolo[3,4-d]pyrimidin-3-one], which EC50 (A427 cells; siCTRL) is on record?
Its EC50 is 196 nM.

And the EC50 (A427 cells; siPPP2R1A)?
Its EC50 is 55.4 nM.

And the EC50 (H1975 cells; siCTRL)?
Its EC50 is 560 nM.

What about the EC50 (H1975 cells; siPPP2R1A) of the same compound?
The EC50 was 150 nM.

What about the EC50 (Hs578T cells; siCTRL) of the same compound?
The EC50 was 170 nM.

And the EC50 (Hs578T cells; siPPP2R1A)?
The EC50 was 71.3 nM.

And the EC50 (SKOV3 cells; siCTRL)?
The EC50 was 480 nM.

What about the EC50 (SKOV3 cells; siPPP2R1A) of the same compound?
The EC50 was 180 nM.

What about the “percent inhibition of cell growth” value ([1]; HEC-59, siCTRL) of the same compound?
Its value is “approximately 12%”.

What about the “percent inhibition in siPPP2R1A treated cells compared to siCTRL treated cells” value ([1]; HEC-59, siPPP2R1A) of the same compound?
Its value is “approximately doubled”.

What about the “percent inhibition of cell growth” value ([2]; siCTRL) of the same compound?
Its value is “approximately 30%”.

What about the “percent inhibition in siPPP2R1A treated cells compared to siCTRL treated cells” value ([2]; siPPP2R1A) of the same compound?
The value was “approximately the same”.
